Measured values as given in paper PMC9861803, “A New ABCB1 Inhibitor Enhances the Anticancer Effect of Doxorubicin in Both In Vitro and In Vivo Models of NSCLC” (International Journal of Molecular Sciences, 2023).

What was measured:
[1] = target: ABCA1 (Mus musculus, UniProt P41233); assay: radiolabelled cholesterol efflux to apoA-I from murine peritoneal macrophages; format: cell-based
[2] = target: T1, breast cancer resistant protein (BCRP, ABCG2) (Homo sapiens, UniProt Q9UNQ0); assay: Hoechst […] accumulation assay in H460 cells; format: cell-based
T1 sequence (Q9UNQ0 1-655): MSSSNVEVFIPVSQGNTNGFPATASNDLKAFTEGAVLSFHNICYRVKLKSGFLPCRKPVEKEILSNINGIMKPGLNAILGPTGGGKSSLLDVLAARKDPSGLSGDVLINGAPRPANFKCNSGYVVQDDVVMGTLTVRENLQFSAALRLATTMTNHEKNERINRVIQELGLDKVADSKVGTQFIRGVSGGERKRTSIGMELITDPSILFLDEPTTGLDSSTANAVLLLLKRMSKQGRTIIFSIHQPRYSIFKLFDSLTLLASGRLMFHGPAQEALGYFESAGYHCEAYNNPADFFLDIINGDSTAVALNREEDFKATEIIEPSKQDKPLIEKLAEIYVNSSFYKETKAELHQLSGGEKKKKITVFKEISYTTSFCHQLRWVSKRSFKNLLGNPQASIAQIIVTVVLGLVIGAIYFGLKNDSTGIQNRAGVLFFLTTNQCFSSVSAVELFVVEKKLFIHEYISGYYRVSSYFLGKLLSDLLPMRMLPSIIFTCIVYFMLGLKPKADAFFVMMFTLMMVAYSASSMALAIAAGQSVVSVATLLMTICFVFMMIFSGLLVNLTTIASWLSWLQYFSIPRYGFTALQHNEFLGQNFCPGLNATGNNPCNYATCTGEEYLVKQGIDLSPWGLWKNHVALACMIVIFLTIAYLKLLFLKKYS

Chain of ABCA1 (P41233 whole entry): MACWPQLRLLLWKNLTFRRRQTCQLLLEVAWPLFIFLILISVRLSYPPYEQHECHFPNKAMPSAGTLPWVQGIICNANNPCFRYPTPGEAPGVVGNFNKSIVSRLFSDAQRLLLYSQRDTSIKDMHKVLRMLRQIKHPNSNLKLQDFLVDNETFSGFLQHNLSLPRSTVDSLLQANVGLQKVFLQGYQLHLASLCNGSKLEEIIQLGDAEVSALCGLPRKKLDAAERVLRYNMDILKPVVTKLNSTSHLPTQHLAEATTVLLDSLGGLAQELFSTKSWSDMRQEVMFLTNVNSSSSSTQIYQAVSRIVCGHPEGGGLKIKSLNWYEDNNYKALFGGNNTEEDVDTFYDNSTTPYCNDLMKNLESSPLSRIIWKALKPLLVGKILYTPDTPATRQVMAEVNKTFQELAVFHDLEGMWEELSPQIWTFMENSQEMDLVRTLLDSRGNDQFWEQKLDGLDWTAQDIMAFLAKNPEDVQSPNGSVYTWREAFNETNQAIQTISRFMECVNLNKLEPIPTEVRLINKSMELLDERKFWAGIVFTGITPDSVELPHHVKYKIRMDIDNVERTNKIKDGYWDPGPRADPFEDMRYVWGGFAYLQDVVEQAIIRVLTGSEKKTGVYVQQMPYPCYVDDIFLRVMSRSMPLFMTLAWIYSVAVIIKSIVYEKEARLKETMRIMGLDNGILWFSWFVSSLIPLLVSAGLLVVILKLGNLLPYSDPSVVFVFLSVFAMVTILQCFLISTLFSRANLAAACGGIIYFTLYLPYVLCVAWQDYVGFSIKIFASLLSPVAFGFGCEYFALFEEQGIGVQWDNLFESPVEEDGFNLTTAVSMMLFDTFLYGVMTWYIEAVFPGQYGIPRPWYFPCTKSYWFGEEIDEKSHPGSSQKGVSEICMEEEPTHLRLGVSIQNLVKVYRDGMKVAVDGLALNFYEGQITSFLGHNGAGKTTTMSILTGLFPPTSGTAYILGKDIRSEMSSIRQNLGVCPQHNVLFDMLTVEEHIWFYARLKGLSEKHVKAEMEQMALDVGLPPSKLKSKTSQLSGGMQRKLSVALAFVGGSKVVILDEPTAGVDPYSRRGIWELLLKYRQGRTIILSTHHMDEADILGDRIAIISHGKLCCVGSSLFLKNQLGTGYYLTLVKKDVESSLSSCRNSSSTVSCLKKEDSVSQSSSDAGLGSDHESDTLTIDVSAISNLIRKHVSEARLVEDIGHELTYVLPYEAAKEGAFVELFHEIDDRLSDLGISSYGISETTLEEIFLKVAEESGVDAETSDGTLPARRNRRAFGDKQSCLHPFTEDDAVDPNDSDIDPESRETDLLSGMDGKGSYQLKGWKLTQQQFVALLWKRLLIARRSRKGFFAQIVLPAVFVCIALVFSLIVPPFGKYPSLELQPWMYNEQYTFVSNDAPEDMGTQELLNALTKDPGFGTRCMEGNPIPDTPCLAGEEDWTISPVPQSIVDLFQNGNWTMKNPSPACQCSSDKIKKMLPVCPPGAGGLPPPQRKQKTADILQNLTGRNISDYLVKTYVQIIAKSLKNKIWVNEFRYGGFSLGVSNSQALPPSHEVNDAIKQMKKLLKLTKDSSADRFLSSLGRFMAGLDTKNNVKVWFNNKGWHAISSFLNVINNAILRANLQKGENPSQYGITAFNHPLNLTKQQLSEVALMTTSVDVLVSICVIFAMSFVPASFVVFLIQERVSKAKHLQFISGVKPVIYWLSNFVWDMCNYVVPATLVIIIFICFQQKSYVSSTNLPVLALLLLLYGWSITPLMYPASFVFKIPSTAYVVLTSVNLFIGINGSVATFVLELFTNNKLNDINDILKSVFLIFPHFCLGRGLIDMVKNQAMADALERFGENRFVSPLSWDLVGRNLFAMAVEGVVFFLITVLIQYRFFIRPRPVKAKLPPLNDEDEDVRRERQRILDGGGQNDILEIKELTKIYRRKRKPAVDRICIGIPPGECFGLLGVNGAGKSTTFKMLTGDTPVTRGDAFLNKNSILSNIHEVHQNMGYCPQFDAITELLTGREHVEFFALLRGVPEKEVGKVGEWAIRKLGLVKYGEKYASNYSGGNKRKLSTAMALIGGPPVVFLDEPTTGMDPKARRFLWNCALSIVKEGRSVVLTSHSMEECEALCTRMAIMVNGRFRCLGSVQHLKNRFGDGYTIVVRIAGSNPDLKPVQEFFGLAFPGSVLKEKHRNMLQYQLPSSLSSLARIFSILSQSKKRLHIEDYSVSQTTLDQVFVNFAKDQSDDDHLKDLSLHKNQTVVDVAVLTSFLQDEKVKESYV

| SMILES | radiolabelled cholesterol efflux to apoA-I from murine peritoneal macrophages [1] | Hoechst 33342 accumulation assay in H460 cells [2] |
| --- | --- | --- |
| CC(C)(Sc1cc(C(C)(C)C)c(O)c(C(C)(C)C)c1)Sc1cc(C(C)(C)C)c(O)c(C(C)(C)C)c1 [probucol] | probucol, the lead compound, significantly inhibited in a dose-dependent manner the ABCA1 activity | – |
| COc1ccc2c3c([nH]c2c1)[C@H](C=C(C)C)N1C(=O)[C@@H]2CCCN2C(=O)[C@@H]1C3 [fumetrimorgin C] | – | the reference compound fumetrimorgin C, as expected, significantly inhibited the amount of Hoechst 33342-caused intracellular fluorescence |
